Ends that are not written are not given here.
Experiments:
S. aureus ATCC® 29213 = assay type: cell-based, Staphylococcus aureus; conditions: CLSI broth microdilution, Mueller-Hinton broth, peptide 30 µM, ~6 × 10^6 CFU/mL, 24 h 37 °C, OD600; triplicate, three independent assays; NA = no activity
Experimental: (§1) Activity screening was conducted using the broth microdilution method at a fixed peptide concentration of 30 µM against E. coli ATCC® 8739 and 25922, as well as S. aureus ATCC® 6538 and 29213. The bacterial density used for screening was approximately 6 × 10^6 CFU/mL [30]. Peptide activity measurements were conducted in terms of the growth inhibition percentage. No dose-response curves were generated during the screening phase as a resource optimization strategy in the initial activity evaluation. […] For S. aureus ATCC® 6538 and S. aureus ATCC® 29213, growth inhibition ranged from 0% to 140% and 0% to 98%, respectively (Table 1).
(§2) The evaluation of the antimicrobial activity of the peptides was conducted using the CLSI’s broth microdilution method for bacterial susceptibility testing. For the screening phase, peptides were evaluated at a single 30 μM concentration, in triplicate and in three independent assays, against the E. coli ATCC® 8739, E. coli ATCC® 25922, S. aureus ATCC® 6538, or S. aureus ATCC® 29213 reference USP and CLSI strains. For the determination of MIC, MBC, or IC50, peptides or antibiotics were evaluated in concentrations between 1.56–200 µM. These evaluations were conducted in triplicate and in three independent assays, against the E. coli ATCC® 25922, S. aureus ATCC® 29213, E. faecalis ATCC® 49532, P. aeruginosa ATCC® 9027, and K. pneumoniae ATCC® BAA-1705, or the clinically isolated MDR strain. In detail, 1 mL of a glycerol stock solution of the ATCC® or clinically isolated bacterial strain was added to 9 mL of Mueller-Hinton Broth and incubated for 18 h, 180 rpm and 37 °C (Incubator 1000, Heidolph Instruments, Schwabach, Germany). After the incubation, 1 mL of the previous solution was transferred to a new recipient containing 9 mL of fresh Mueller-Hinton broth and incubated for 4 h, 180 rpm and 37 °C (Incubator 1000, Heidolph Instruments, Schwabach, Germany). During the second incubation, the peptides or the antibiotics were dissolved in PBS pH 7.20 in concentrations between 19.53–2500 µM (MC5 Micro Balance, Sartorius AG, Göttingen, Germany). An amount of 10 µL of either peptide or antibiotic was dispensed in triplicate in 96-well flat bottom culture plates, along with 10 µL of PBS (Negative activity control), BTM-P1 (Positive activity control), or 10 µL of Mueller-Hinton broth (Blank); then, 110 µL of Mueller-Hinton broth was poured in all wells. Following this, the bacteria were suspended in Mueller-Hinton broth up to a concentration of approximately 1.50 × 10^8 CFU/mL, as measured by optical density at 600 nm between 0.06 to 0.11 (0.5 McFarland standard), in a Multiskan SkyHigh spectrophotometer (ThermoFisher Scientific, Waltham, MA, USA). Amounts of 5 µL of the 1.50 × 10^8 CFU/mL suspension were added to each well (except for the blank) for a final well concentration of approximately 6 × 10^6 CFU/mL. The plate was incubated for 24 h at 37 °C (BE 500, Memmert GmbH, Büchenbach, Germany) and optical density was measured at 600 nm in a Multiskan SkyHigh spectrophotometer (ThermoFisher Scientific, Waltham, MI, USA). Following the measurement of optical density, plates were visually inspected to determine the MIC. Subsequently, 100 µL of the concentration associated to the MIC and 100 µL of the next higher concentration were added to Petri dishes containing Mueller-Hinton Agar. The dishes were then incubated for 24 h at 37 °C (BE 500, Memmert GmbH, Büchenbach, Germany). After incubation, the Petri dishes were visually inspected, and the MBC was determined in the absence of growth. IC50 values were interpolated from regressions with correlation values above 0.70. Growth inhibition percentages were calculated as follows: Growth inhibition %=1−AbsPEPTIDE or ANTIBIOTIC−Median AbsBLANK/Median AbsPBS−Median AbsBLANK×100

S. aureus ATCC® 6538 = assay type: cell-based, Staphylococcus aureus; conditions: CLSI broth microdilution, Mueller-Hinton broth, peptide 30 µM, ~6 × 10^6 CFU/mL, 24 h 37 °C, OD600; triplicate, three independent assays; NA = no activity
Experimental: as §1, §2

E. coli ATCC® 25922 = assay type: cell-based, Escherichia coli
Experimental: The nine AMPs identified in the initial screening were evaluated at concentrations between 1.56–200 µM, against E. coli ATCC® 25922, S. aureus ATCC® 29213, E. faecalis ATCC® 49532, P. aeruginosa ATCC® 9027, and K. pneumoniae ATCC® BAA-1705 (Supplementary Figures S2–S6). […] Only PvAMP66 and PvAMP172 reached the MBC for S. aureus at 50 µM and 100 µM, respectively (Table 2).
as §2

WKKIKKFF-NH2 [PvAMP66]
S. aureus ATCC® 29213 (Inhibition %) (S. aureus ATCC® 29213): 98.25 ± 0.39 % | S. aureus ATCC® 6538 (Inhibition %) (S. aureus ATCC® 6538): 139.72 ± 1.90 % | MIC (E. coli ATCC® 25922; 1.56–200 µM, 24 h 37 °C, visual inspection, triplicate, three independent assays): 50 µM | IC50 (E. coli ATCC® 25922; growth inhibition OD600, interpolated from regression, 95% confidence interval in parentheses, read-out: IC50): 38.3 µM | MBC (E. coli ATCC® 25922; plating on Mueller-Hinton agar, 24 h 37 °C, absence of growth): 50 µM
